Results on six compounds are retold here after publication PMC8347686, “Thiourea Derivatives, Simple in Structure but Efficient Enzyme Inhibitors and Mercury Sensors” (Molecules, 2021).

One may read the IC50 as the concentration that gives 50% inhibition. The term inhibition denotes the change of the read-out against control, counted positive when it falls. Low values mean a weak effect, high ones a strong effect.

One assay deals with T1, AChE (Electrophorus electricus, UniProt O42275).
T1 construct: The enzyme AChE is derived from Electric eel and BChE from equine serum; from tissue
T1 sequence (O42275 24-633): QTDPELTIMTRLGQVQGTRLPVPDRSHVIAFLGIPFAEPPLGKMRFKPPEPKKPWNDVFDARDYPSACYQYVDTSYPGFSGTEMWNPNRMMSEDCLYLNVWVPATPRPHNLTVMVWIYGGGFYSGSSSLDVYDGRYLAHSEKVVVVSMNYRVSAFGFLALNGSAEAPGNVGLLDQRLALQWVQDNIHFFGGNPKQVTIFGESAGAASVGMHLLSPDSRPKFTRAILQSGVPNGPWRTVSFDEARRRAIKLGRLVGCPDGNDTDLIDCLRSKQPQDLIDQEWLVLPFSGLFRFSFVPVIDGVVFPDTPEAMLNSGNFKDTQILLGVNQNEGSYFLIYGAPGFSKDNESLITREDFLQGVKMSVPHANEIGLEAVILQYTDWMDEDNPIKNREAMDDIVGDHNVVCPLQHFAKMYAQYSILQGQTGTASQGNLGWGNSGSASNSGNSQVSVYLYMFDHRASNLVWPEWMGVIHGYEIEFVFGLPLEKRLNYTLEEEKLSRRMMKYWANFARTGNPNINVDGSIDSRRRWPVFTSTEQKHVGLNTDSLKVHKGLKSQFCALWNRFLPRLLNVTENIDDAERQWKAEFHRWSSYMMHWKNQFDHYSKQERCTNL
Kind of assay: biochemical. The settings on record: for inhibition at 62.5 µg/mL: Conc. 62.5 µg/mL; for inhibition at 125 µg/mL: Conc. 125 µg/mL; for inhibition at 250 µg/mL: Conc. 250 µg/mL; for inhibition at 500 µg/mL: Conc. 500 µg/mL; for inhibition at 1000 µg/mL: Conc. 1000 µg/mL. How it is done: (§1) The enzyme AChE is derived from Electric eel and BChE from equine serum. Buffer of phosphate, 0.1 M at pH 8.0 was prepared to whom varied concentration ([…]–1000 μg/mL) of the respective compound was added. The solution of AChE was diluted to 0.03 U/mL from 518 U/mg, similarly BChE from 7–16 U/mg to 0.01 U/mL at the given pH condition. Distilled water was used as solvent, for preparation of 0.5 mM acetylthiocholine iodide (ATchI), 0.2273 mM 5,5′-dithiobis-2-nitrobenzoic acid (DTNB) and 0.5 mM butyrylthiocholine iodide (BTchI). All solutions were stored at 8 °C in a refrigerator prior to performing the experiment.
(§2) Enzyme solution (5 μL), corresponding compound (205 μL), and DTNB reagent (5 μL) were mixed in a cuvette. The solution was incubated for 15 min at 30 °C followed by addition of 5 μL of the substrate solution. Absorbance of the incubated sample was measured at 412 nm by a double-beam spectrophotometer (Thermo Electron Corporation, USA) for 4 min along with the reaction time at 30 °C. The well-established Galanthamine was used as positive control and all experiments were performed in triplicate. The percent enzyme activity and enzyme inhibition by control and test samples were calculated from the rate of absorption with respect to change in time (V = ΔAbs/Δt) using the same procedure as reported previously.

The target of a further assay is T2, BChE (Equus caballus, UniProt P81908).
T2 construct: The enzyme AChE is derived from Electric eel and BChE from equine serum; from tissue; host or cells: equine serum
T2 sequence (P81908 whole entry): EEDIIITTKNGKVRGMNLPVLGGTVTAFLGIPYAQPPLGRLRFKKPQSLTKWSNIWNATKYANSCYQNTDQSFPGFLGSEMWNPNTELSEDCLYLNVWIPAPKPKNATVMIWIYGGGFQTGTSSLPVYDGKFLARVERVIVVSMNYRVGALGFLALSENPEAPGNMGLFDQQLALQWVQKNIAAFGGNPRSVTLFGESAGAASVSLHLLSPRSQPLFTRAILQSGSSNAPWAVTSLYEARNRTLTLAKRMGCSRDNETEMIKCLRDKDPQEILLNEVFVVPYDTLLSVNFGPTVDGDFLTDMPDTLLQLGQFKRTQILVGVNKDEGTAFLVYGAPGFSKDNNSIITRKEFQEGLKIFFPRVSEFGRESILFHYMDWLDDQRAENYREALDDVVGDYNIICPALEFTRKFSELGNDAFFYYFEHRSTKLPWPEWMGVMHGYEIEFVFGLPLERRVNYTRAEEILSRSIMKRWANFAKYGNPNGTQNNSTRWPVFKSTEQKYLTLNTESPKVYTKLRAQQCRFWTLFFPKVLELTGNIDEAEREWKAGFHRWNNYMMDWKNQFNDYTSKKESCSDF
Kind of assay: Ellman's assay, BChE inhibition. It is filed as biochemical. The settings on record: for inhibition at 62.5 µg/mL: Conc. 62.5 µg/mL; for inhibition at 125 µg/mL: Conc. 125 µg/mL; for inhibition at 250 µg/mL: Conc. 250 µg/mL; for inhibition at 500 µg/mL: Conc. 500 µg/mL; for inhibition at 1000 µg/mL: Conc. 1000 µg/mL. As to the method:
as §1, §2
A general note: In Ellman's method for cholinesterases, released thiocholine reacts with DTNB.

A further assay relates to mushroom tyrosinase. On the set-up: method as in PMID 21978680, PMID 28904627. Conditions: ref [6],[42]; cited from earlier work.
Another assay relates to melanin B16 cells. On the set-up: method as in PMID 21978680, PMID 28904627. The settings on record: ref [6],[42]; read-out: IC50 as melanin B16 inhibitor; cited from earlier work.

For `CCCCN(CCCC)C(=S)Nc1ccccc1` [Compound 4, 1-(1,1-dibutyl)-3-phenylthiourea], on AChE, the IC50 was 219 µM, testing at 62.5 µg/mL gave an inhibition of 47.9 ± 0.47%, the inhibition at 125 µg/mL stood at 71.8 ± 1.5% and the inhibition at 250 µg/mL came out at 77.8 ± 2.26%. At AChE, this compound showed an inhibition at 500 µg/mL of 85.4 ± 0.2% and an inhibition at 1000 µg/mL of 93.6 ± 1.12%. At AChE (Conc. 31.5 µg/mL), this compound showed an inhibition at 31.5 µg/mL of 39 ± 0.88%. Further, at BChE, it took 238 µM to reach half-maximal inhibition (IC50), the inhibition at 62.5 µg/mL was found to be 53.5 ± 0.9%, the inhibition at 125 µg/mL was found to be 77.4 ± 1.7% and testing at 250 µg/mL gave an inhibition of 89.8 ± 1.5%. At BChE, this compound gave an inhibition at 500 µg/mL of 94.4 ± 0.5% and an inhibition at 1000 µg/mL of 98%. In addition, testing at 31.5 µg/mL on BChE (Conc. 31.5 µg/mL) gave an inhibition of 47.3 ± 0.7%.

On AChE, `S=C(Nc1ccccc1)Nc1ccc(Cl)cc1` [Compound 6, 1-(4-chlorophenyl)-3-phenylthiourea] showed an IC50 of 1080 µM, an inhibition at 62.5 µg/mL of 31.9 ± 0.48%, an inhibition at 125 µg/mL of 39 ± 0.48% and an inhibition at 250 µg/mL of 47.9 ± 0.96%. On AChE, this compound registered an inhibition at 500 µg/mL of 61.6 ± 1.34% and an inhibition at 1000 µg/mL of 69.6 ± 1.12%. Also, the “potency as mushroom tyrosinase inhibitor” value with mushroom tyrosinase is recorded as “moderate potency”. Further, on BChE, the midpoint of inhibition, the IC50, lay at 1010 µM; at 62.5 µg/mL the inhibition was 33 ± 1.15%; the inhibition at 125 µg/mL is 42.7 ± 0.89%; the inhibition at 250 µg/mL was determined as 49 ± 0.58%. On BChE, this compound displayed an inhibition at 500 µg/mL of 63.03 ± 0.23% and an inhibition at 1000 µg/mL of 71.33 ± 0.49%. In addition, the IC50 with melanin B16 cells was 3.4 µM.

As for `CC(C)(C)NC(=S)NC1CCCCC1` [Compound 2, 1-tert-butyl-3-cyclohexylthiourea], on AChE, the 50% inhibitory concentration (IC50) was 1400 µM, the inhibition at 62.5 µg/mL was determined as 38.7 ± 0.68%, the inhibition at 125 µg/mL is 44.7 ± 1.25% and 250 µg/mL produced 48 ± 0.75% inhibition. At AChE, this compound registered an inhibition at 500 µg/mL of 56.3 ± 1.06% and an inhibition at 1000 µg/mL of 63.3 ± 0.98%. On BChE, half-maximal inhibition (IC50) required 863 µM, the inhibition at 62.5 µg/mL is 41.3 ± 1.01%, the inhibition at 125 µg/mL amounted to 46.7 ± 0.78% and the inhibition at 250 µg/mL is 51.4 ± 1.65%. At BChE, testing at 500 µg/mL gave an inhibition of 57.9 ± 0.97% and the inhibition at 1000 µg/mL was 65.2 ± 0.72%.

At AChE, `S=C(Nc1cccc(Cl)c1)NC1CCCCC1` [Compound 3, 1-(3-chlorophenyl)-3-cyclohexylthiourea] showed a half-inhibitory concentration (IC50) of 186 µM, an inhibition at 62.5 µg/mL of 51.9 ± 1.16%, an inhibition at 125 µg/mL of 57.34 ± 0.55% and an inhibition at 250 µg/mL of 61.36 ± 0.49%. For the same compound, at 500 µg/mL the inhibition on AChE was 67.39 ± 0.49%. At BChE, this compound showed an IC50 of 223 µM, an inhibition at 62.5 µg/mL of 49.9 ± 0.65%, an inhibition at 125 µg/mL of 57.2 ± 0.57% and an inhibition at 250 µg/mL of 65.5 ± 1.04%. In addition, on BChE, the inhibition at 500 µg/mL worked out at 71.3 ± 1.11% and the inhibition at 1000 µg/mL came to 76.7 ± 0.66%.

Regarding `CC(C)CNC(=S)NC1CCCCC1` [Compound 1, 1-isobutyl-3-cyclohexylthiourea], on AChE, half-maximal inhibition (IC50) was put at 415 µM, the inhibition at 62.5 µg/mL was determined as 46.52 ± 0.38%, the inhibition at 125 µg/mL is 53.64 ± 0.16% and the inhibition at 250 µg/mL was 57.6 ± 1.7%. Further, at AChE, the inhibition at 500 µg/mL was determined as 63.94 ± 0.45% and the inhibition at 1000 µg/mL worked out at 69.47 ± 0.22%. At BChE, this compound showed an IC50 of 392 µM, an inhibition at 62.5 µg/mL of 46.9 ± 0.42%, an inhibition at 125 µg/mL of 56.4 ± 0.63% and an inhibition at 250 µg/mL of 61 ± 0.33%. On BChE, the inhibition at 500 µg/mL stood at 66.2 ± 0.73% and the inhibition at 1000 µg/mL was 74.4 ± 0.68%.

At AChE, `S=C(Nc1ccccc1)Nc1ccccc1Cl` [Compound 5, 1-(2-chlorophenyl)-3-phenylthiourea] had a 50% inhibitory concentration (IC50) of 1310 µM, an inhibition at 62.5 µg/mL of 29 ± 0.3%, an inhibition at 125 µg/mL of 35.5 ± 0.5% and an inhibition at 250 µg/mL of 41.7 ± 0.77%. In addition, on AChE, the inhibition at 500 µg/mL worked out at 59.7 ± 0.61% and the inhibition at 1000 µg/mL worked out at 66.79 ± 0.63%. In addition, at BChE, 1180 µM corresponded to half-maximal inhibition (IC50), the inhibition at 62.5 µg/mL was 31.7 ± 0.61%, the inhibition at 125 µg/mL amounted to 37.5 ± 0.5% and 250 µg/mL produced 44.5 ± 0.64% inhibition. Also, at BChE, the inhibition at 500 µg/mL came out at 63.86 ± 0.6% and the inhibition at 1000 µg/mL amounted to 71.6 ± 0.74%.
